Results reported in ChEMBL document CHEMBL1201862, “PubChem BioAssay data set” (2004).
Calls of active or inactive are those of the source.

Experiments:
Aminopeptidase N = molecular target: T1, Aminopeptidase N (Plasmodium falciparum FcB1/Columbia, UniProt O96935); assay: P. falciparum M1AAP inhibitors, biochemical, fluorogenic H-Leu-NHMec substrate, 1536-well (AID 1445); parameters: species or system Plasmodium falciparum 3D7, 3D7
T1 sequence (O96935 whole entry): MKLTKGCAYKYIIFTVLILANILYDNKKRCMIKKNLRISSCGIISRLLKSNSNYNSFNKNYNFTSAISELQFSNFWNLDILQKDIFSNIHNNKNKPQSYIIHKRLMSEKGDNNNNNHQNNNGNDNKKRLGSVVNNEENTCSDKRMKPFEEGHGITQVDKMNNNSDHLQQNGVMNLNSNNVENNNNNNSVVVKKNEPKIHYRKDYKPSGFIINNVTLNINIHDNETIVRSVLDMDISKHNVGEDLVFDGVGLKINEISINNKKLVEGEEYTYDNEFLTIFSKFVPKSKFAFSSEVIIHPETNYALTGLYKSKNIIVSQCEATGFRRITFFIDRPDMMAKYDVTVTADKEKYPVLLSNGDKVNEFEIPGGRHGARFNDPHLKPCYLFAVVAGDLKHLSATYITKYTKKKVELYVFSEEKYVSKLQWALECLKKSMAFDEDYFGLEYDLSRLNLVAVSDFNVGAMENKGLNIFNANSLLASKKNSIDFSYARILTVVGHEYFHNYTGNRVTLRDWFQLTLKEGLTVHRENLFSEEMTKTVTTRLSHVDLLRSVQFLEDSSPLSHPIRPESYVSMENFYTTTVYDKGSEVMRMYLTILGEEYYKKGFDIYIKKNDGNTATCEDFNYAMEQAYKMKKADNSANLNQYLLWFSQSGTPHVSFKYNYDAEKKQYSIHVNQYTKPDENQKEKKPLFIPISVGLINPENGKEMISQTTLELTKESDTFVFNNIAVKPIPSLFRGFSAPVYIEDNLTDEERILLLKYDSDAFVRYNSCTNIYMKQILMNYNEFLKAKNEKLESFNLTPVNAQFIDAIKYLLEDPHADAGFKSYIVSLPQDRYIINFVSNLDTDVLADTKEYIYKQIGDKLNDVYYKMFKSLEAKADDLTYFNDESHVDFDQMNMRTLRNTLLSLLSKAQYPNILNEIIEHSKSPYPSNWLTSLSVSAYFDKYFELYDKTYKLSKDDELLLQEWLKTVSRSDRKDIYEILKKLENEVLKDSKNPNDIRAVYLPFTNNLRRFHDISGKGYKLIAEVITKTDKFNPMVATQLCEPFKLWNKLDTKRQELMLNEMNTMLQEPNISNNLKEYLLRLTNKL

[1] = HIV-1 Env-mediated cell fusion inhibitors, dose response, CCR5-tropic Env (AID 2279); assay type: functional
[2] = molecular target: Bifunctional protein GlmU (Mycobacterium tuberculosis, UniProt P9WMN3); assay: Inhibitors of Mycobacterial Glucosamine-1-phosphate acetyl transferase (GlmU). Secondary screen.; parameters: species or system Mycobacterium tuberculosis H37Rv
[3] = inhibitors of Bluetongue virus cytopathic effect, confirmation, arbovirus, BSR cells (AID 1250); assay type: functional;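 further: protection from viral cytopathic effect measured as cell viability by ATP luminescence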
[4] = molecular target: T2, Replicative DNA helicase DnaB (Mycobacterium tuberculosis, UniProt P9WMR3); assay: DnaB intein splicing inhibitors, dose response, biochemical, cell-free fluorescence (AID 449749); assay type: functional
T2 sequence (P9WMR3 whole entry): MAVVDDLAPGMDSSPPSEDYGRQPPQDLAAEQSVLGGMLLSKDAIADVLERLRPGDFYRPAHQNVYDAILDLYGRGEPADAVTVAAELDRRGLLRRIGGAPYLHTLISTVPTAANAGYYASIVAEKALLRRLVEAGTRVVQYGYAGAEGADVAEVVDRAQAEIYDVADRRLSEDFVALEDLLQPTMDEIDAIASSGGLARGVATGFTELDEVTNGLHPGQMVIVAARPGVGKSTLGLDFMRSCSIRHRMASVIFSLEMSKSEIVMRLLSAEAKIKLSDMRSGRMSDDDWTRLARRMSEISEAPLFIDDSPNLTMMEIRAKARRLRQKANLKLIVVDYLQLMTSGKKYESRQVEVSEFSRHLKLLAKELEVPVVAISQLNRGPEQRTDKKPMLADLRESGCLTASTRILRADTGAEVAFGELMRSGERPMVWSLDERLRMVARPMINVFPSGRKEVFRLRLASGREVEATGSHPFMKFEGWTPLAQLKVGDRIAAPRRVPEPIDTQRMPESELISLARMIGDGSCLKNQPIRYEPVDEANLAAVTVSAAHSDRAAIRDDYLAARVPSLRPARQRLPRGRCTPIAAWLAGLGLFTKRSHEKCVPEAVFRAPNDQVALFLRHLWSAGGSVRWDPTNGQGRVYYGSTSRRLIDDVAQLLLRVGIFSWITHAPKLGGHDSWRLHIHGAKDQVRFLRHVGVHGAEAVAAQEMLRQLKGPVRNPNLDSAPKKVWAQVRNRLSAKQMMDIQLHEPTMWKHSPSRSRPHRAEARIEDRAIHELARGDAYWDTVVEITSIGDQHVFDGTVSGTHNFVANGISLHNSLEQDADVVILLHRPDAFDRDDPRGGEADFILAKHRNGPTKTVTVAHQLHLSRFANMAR

Protein RecA = molecular target: T3, Protein RecA (Mycobacterium tuberculosis, UniProt P9WHJ3); assay: Fluorescence Cell-Free Homogeneous Dose Retest to Identify Inhibitors of RecA-Intein Splicing Activity. [Related pubchem assays (depositor defined):AID2097, AID2223, AID489010, AID492950]; assay type: functional
T3 sequence (P9WHJ3 whole entry): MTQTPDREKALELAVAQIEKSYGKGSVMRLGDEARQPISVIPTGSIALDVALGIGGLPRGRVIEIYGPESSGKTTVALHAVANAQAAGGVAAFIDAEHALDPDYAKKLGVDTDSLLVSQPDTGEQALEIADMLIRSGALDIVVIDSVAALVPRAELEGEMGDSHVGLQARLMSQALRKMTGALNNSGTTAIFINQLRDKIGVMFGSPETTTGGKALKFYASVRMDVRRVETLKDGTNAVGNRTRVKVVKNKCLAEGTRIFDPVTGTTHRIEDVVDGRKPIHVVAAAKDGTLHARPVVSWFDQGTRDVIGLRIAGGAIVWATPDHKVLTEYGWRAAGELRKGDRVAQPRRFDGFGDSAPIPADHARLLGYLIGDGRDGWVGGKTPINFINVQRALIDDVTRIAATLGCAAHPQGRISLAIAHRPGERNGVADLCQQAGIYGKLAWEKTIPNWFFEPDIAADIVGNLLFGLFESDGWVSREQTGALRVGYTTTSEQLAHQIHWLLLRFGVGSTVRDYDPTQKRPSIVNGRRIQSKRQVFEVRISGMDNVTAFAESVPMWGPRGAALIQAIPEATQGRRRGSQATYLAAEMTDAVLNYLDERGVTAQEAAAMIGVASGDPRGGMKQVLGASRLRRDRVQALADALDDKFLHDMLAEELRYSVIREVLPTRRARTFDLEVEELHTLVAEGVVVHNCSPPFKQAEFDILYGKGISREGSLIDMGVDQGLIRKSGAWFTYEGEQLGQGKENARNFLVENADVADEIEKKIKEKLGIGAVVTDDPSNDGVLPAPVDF

Estrogen receptor = molecular target: T4, Estrogen receptor (Homo sapiens, UniProt P03372); assay: ERα–SRC-3 coactivator interaction inhibitors, confirmation, orthogonal assay, biochemical, ELISA, streptavidin-HRP readout (AID 1079)
T4 sequence (P03372 whole entry): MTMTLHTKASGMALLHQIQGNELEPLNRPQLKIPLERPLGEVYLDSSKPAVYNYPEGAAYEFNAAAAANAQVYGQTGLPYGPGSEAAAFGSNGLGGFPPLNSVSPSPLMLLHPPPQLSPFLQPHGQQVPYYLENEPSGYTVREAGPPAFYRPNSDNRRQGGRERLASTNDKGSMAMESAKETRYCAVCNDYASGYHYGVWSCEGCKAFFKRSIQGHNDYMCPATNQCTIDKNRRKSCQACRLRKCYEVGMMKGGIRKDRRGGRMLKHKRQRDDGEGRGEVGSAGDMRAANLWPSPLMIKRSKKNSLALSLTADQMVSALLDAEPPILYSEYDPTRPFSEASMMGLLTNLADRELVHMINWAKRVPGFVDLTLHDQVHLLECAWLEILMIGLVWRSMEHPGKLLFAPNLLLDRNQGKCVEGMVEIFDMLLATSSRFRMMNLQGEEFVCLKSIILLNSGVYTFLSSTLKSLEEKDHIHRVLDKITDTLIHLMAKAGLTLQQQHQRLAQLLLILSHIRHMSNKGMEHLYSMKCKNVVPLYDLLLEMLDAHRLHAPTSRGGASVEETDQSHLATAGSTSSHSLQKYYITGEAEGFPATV

[5] = Counterscreen for IDE inhibitors: Luminescence-based cell-based high throughput dose response assay to identify compounds that are cytotoxic to HEK cells. [Related pubchem assays: 434962 (Primary screen (IDE inhibitors in singlicate)), 449730 (Counterscreen (Cytotoxicity in triplicate)), 435028 (Confirmation (IDE inhibitors in triplicate)) …; assay type: functional; details: HEK293
Insulin-degrading enzyme = molecular target: T5, Insulin-degrading enzyme (Homo sapiens, UniProt P14735); assay: Dose Response: Fluorescence polarization-based cell-based high throughput dose response assay for inhibitors of insulin-degrading enzyme (IDE). [Related pubchem assays: 434962 (Primary screen (IDE inhibitors in singlicate)), 449730 (Counterscreen (Cytotoxicity in triplicate)), 435028 (Confirmation (IDE inhibitors in triplicate)), 434984 (Summary …; assay type: functional
T5 sequence (P14735 whole entry): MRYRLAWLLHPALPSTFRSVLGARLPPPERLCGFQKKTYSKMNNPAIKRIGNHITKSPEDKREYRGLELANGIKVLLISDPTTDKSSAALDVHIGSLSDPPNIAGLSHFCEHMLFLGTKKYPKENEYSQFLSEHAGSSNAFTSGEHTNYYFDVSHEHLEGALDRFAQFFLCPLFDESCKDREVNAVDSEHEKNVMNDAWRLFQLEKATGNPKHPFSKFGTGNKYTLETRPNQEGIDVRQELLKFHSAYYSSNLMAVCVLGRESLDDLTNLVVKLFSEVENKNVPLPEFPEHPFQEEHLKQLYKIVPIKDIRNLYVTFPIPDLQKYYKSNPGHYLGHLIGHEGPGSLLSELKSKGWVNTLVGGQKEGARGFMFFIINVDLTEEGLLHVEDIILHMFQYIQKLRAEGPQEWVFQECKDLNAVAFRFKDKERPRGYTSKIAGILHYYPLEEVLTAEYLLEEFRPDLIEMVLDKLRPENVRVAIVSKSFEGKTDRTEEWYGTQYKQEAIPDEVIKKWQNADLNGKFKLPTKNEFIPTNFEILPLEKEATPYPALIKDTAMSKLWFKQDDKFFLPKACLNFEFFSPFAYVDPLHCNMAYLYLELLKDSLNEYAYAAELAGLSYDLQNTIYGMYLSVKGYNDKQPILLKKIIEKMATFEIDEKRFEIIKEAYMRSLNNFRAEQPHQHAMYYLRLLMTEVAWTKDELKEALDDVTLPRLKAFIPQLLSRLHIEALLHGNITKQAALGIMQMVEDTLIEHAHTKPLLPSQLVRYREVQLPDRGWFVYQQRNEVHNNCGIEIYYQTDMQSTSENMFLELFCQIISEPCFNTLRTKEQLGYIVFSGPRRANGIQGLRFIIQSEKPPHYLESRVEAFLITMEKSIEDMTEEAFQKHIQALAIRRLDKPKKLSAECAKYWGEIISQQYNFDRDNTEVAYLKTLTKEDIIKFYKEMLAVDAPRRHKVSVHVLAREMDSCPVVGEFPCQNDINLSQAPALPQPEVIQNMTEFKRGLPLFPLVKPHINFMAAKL

[6] = molecular target: T6, Corticotropin-releasing factor receptor 2/Corticotropin-releasing factor-binding protein (Homo sapiens, UniProt P24387+Q13324); assay: activators of CRF receptor 2 with binding protein – uHTS hits, confirmation (AID 602473); assay type: functional; details: read-out: EC50_Mean
T6 sequence (Q13324 whole entry): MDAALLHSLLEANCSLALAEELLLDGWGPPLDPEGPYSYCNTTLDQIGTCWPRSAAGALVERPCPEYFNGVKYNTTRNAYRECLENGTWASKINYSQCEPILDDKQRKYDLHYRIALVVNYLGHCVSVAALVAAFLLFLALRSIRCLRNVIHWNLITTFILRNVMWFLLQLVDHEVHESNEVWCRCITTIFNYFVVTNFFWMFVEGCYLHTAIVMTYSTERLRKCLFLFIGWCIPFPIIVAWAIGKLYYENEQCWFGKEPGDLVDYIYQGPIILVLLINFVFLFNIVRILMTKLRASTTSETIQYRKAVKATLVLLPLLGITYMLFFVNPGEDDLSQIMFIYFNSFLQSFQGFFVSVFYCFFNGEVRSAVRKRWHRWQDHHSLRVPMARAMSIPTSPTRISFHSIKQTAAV
T6 sequence (P24387 whole entry): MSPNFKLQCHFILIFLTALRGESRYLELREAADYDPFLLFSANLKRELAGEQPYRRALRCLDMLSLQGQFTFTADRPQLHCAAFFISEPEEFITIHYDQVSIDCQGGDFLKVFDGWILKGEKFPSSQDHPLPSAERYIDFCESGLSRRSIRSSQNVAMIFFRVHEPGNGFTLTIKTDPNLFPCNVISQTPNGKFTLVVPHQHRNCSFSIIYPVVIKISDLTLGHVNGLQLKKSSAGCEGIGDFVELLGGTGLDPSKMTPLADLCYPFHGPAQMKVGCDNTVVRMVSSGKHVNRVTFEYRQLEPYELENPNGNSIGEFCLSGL

Bifunctional protein GlmU, sequence (P9WMN3 whole entry): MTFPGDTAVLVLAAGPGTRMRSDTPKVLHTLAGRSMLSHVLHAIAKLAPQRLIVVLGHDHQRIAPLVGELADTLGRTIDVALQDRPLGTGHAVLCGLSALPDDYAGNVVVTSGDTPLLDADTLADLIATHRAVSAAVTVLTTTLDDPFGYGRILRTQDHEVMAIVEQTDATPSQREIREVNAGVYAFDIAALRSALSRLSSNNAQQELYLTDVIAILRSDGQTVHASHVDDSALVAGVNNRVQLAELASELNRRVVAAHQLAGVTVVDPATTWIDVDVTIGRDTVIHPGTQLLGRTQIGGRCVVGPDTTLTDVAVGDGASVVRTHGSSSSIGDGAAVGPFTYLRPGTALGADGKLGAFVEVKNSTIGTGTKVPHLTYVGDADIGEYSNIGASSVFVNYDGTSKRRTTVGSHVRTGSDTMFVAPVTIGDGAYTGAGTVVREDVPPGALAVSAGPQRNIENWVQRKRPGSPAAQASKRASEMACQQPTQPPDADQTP

N#C/C(=C\c1ccc(O)c([N+](=O)[O-])c1)c1nc2ccccc2s1
IC50 (Aminopeptidase N): 33.9 µM (active)
IC50 [1]: 3.41 µM (active)
IC50 [2]: 71.8 µM (active)
IC50 [3]: > 100 µM (active)
AC50 [4]: 7.01 µM (active)
EC50 (Protein RecA): 4.58 µM (active)

N#Cc1cccc(N2CCN(C(=O)CCCCCn3c(=S)[nH]c4ccccc4c3=O)CC2)c1
IC50 (Estrogen receptor): 0.09 µM (not active)

CCN(CC)c1ccc(/C=C2\CCC(/C=N/NC(=O)c3ccc(=O)n(C)c3)=C2N2CCOCC2)cc1
IC50 [5]: 16.6 µM (not active)
IC50 (Insulin-degrading enzyme): 12.5 µM (not active)
EC50 [6]: 5.19 µM (active)
